# Structures can show the parent of a compound that is named as a salt.
# Columns and labels:
# [1] = Cytotoxicity Assay (CellTiter-Glo); assay type: cell-based; conditions: human, Hep G2 cells (ATCC HB-8065); 24 h exposure, cell viability; read-out: HepG2 CC50
# Protocol: Cytotoxicity was evaluated in human Hep G2 cells (ATCC HB-8065) seeded at a density of 2×10^5 cells per well and incubated for 24 h at 37° C., 5% CO2. Cells were exposed to a doubling dilution series of test article. After 24 h exposure, the viability of the cells was determined using CellTiter-Glo® (Promega, Wis., USA) according to the manufacturer's instructions. Results are reported as the concentration of test article required to reduce cell viability by 50% (CC50).
# [2] = molecular target: NDM-1 (Klebsiella pneumoniae, UniProt C7C422); test: metallo-β-lactamase inhibition assay (nitrocefin); assay type: biochemical; conditions: 1.5 nM NDM-1, 100 μM nitrocefin, 37° C., pH 7.5
# Protocol: Compounds of the invention were tested in a metallo-β-lactamase inhibition assay to investigate mechanism of action of the compounds. Results are reported as the concentration of test article required to inhibit enzyme activity by 50% (IC50).
# Inhibition of metallo-β-lactamase enzyme function was performed at 37° C. in buffer at pH 7.5 (50 mM HEPES, 150 mM NaCl, 0.1 mM ZnSO4, 20 μg/mL PEG4000), containing 1.5 nM NDM-1, 100 μM nitrocefin, and a range of concentrations of compound. Absorbance at 490 nm was measured using a BMG LABTECH FLUOstar Omega microplate reader every minute for 30 minutes. IC50S were determined from the average increase in OD per minute versus the Log 10 concentration of compound using GraphPad Prism.
# NDM-1, sequence (C7C422 whole entry, looked up, species assumed): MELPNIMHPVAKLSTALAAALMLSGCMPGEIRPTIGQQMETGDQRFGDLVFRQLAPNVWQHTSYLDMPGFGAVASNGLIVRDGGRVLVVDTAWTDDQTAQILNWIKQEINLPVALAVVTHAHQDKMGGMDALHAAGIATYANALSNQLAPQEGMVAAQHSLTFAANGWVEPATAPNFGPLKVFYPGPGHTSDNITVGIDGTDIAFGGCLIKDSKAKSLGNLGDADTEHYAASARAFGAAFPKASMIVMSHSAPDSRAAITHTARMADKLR
IC50 [2],SMILES,CC50 at 24 h [1]
–,"NS(=O)(=O)n1ccc(-c2ccccc2)c1C(=O)O [Example 3, 3-Phenyl-1-sulfamoyl-1H-pyrrole-2-carboxylic acid, sodium salt]",> 128 µg/mL
–,"CN(C)S(=O)(=O)c1ccc(-c2ccn(S(N)(=O)=O)c2C(=O)O)cc1 [Example 4, 3-[4-(Dimethylsulfamoyl)phenyl]-1-sulfamoyl-1H-pyrrole-2-carboxylic acid, sodium salt]",> 128 µg/mL
–,"Cc1nn(C)c(C)c1-c1ccn(S(N)(=O)=O)c1C(=O)O [Example 7, 1-Sulfamoyl-3-(1,3,5-trimethyl-1H-pyrazol-4-yl)-1H-pyrrole-2-carboxylic acid, sodium salt]",> 256 µg/mL
–,"NS(=O)(=O)n1ccc(C2CCCCC2)c1C(=O)O [Example 10, 3-Cyclohexyl-1-sulfamoyl-pyrrole-2-carboxylic acid, sodium salt]",145 µg/mL
–,"NS(=O)(=O)n1ccc(-c2ccc(-c3ccncc3)cc2)c1C(=O)O [Example 13, 3-[4-(Pyridin-4-yl)phenyl]-1-sulfamoyl-1H-pyrrole-2-carboxylic acid]",> 256 µg/mL
–,"NS(=O)(=O)n1ccc(-c2ccccc2F)c1C(=O)O [Example 14, 3-(2-Fluorophenyl)-1-sulfamoyl-pyrrole-2-carboxylic acid]",> 256 µg/mL
–,"N#Cc1ccc(-c2ccn(S(N)(=O)=O)c2C(=O)O)cc1 [Example 15, 3-(4-Cyanophenyl)-1-sulfamoyl-1H-pyrrole-2-carboxylic acid]",> 256 µg/mL
–,"NS(=O)(=O)n1ccc(-c2ccc(N3CCOCC3)nc2)c1C(=O)O [Example 16, 3-[6-(Morpholin-4-yl)pyridin-3-yl]-1-sulfamoyl-1H-pyrrole-2-carboxylic acid]",> 64 µg/mL
–,"CC(C)(C)OC(=O)N1CCN(S(=O)(=O)c2ccc(-c3ccn(S(N)(=O)=O)c3C(=O)O)cc2)CC1 [Example 17, 3-[4-(4-tert-Butoxycarbonylpiperazin-1-yl)sulfonylphenyl]-1-sulfamoyl-pyrrole-2-carboxylic acid, sodium salt]",252 µg/mL
–,"Cc1ccccc1-c1ccn(S(N)(=O)=O)c1C(=O)O [Example 20, 3-(o-Tolyl)-1-sulfamoyl-pyrrole-2-carboxylic acid]",> 256 µg/mL
608 nM,"CC(=O)Nc1ccc(-c2ccn(S(N)(=O)=O)c2C(=O)O)cn1 [Example 24, 3-(6-Acetamido-3-pyridyl)-1-sulfamoyl-pyrrole-2-carboxylic acid]",–
1360 nM,"Nc1ncc(-c2ccn(S(N)(=O)=O)c2C(=O)O)cn1 [Example 25, 3-(2-Aminopyrimidin-5-yl)-1-sulfamoyl-pyrrole-2-carboxylic acid, sodium salt]",–
512 nM,"NC(=O)c1ccc(-c2ccn(S(N)(=O)=O)c2C(=O)O)cc1 [Example 26, 3-(4-Carbamoylphenyl)-1-sulfamoyl-pyrrole-2-carboxylic acid]",–
–,"NS(=O)(=O)n1ccc(-c2ccc(S(=O)(=O)N3CCNCC3)cc2)c1C(=O)O [Example 35, 3-[4-(Piperazine-1-sulfonyl)phenyl]-1-sulfamoyl-1H-pyrrole-2-carboxylic acid]",> 256 µg/mL
–,"NS(=O)(=O)n1ccc(-c2ccc(OC3CCNCC3)cc2)c1C(=O)O [Example 37, 3-[4-(Piperidin-4-yloxy)phenyl]-1-sulfamoyl-1H-pyrrole-2-carboxylic acid hydrochloride]",> 256 µg/mL
–,"NS(=O)(=O)n1ccc(C2=CCNCC2)c1C(=O)O [Example 38, 1-Sulfamoyl-3-(1,2,3,6-tetrahydropyridin-4-yl)-1H-pyrrole-2-carboxylic acid hydrochloride]",> 256 µg/mL
264 nM,"NS(=O)(=O)n1ccc(-c2cccc(C3CCNCC3)c2)c1C(=O)O [Example 40, 3-[3-(4-Piperidyl)phenyl]-1-sulfamoyl-pyrrole-2-carboxylic acid hydrochloride]",–

IC50 [2],SMILES,CC50 at 24 h [1]
656 nM,"Nc1nc2ccc(-c3ccn(S(N)(=O)=O)c3C(=O)O)cn2n1 [Example 47, 3-(2-Amino-[1,2,4]triazolo[1,5-a]pyridin-6-yl)-1-sulfamoyl-pyrrole-2-carboxylic acid hydrochloride]",–
–,"CC(=O)N1CCC(c2ccc(-c3ccn(S(N)(=O)=O)c3C(=O)O)cc2)CC1 [Example 48, 3-[4-(1-Acetylpiperidin-4-yl)phenyl]-1-sulfamoyl-1H-pyrrole-2-carboxylic acid]",158 µg/mL
–,"CN(C)S(=O)(=O)N1CCC(c2ccc(-c3ccn(S(N)(=O)=O)c3C(=O)O)cc2)CC1 [Example 49, 3-[4-[1-(Dimethylsulfamoyl)piperidin-4-yl]phenyl]-1-sulfamoyl-1H-pyrrole-2-carboxylic acid]",66.4 µg/mL
263 nM,"NCCCNC(=O)c1ccc(-c2ccn(S(N)(=O)=O)c2C(=O)O)cc1 [Example 51, 3-[4-(3-Aminopropylcarbamoyl)phenyl]-1-sulfamoyl-pyrrole-2-carboxylic acid hydrochloride]",–
314 nM,"Nc1nc2c(-c3ccn(S(N)(=O)=O)c3C(=O)O)cccc2s1 [Example 53, 3-(2-Amino-1,3-benzothiazol-4-yl)-1-sulfamoyl-pyrrole-2-carboxylic acid hydrochloride]",–
–,"NS(=O)(=O)n1ccc(Cc2ccccc2)c1C(=O)O [Example 54, 3-Benzyl-1-sulfamoyl-1H-pyrrole-2-carboxylic acid]",248 µg/mL
–,"NS(=O)(=O)n1ccc(C2CC2)c1C(=O)O [Example 55, 3-Cyclopropyl-1-sulfamoyl-1H-pyrrole-2-carboxylic acid]",> 256 µg/mL
–,"NS(=O)(=O)n1ccc(C2CCNCC2)c1C(=O)O [Example 57, 3-(Piperidin-4-yl)-1-sulfamoyl-1H-pyrrole-2-carboxylic acid hydrochloride]",> 256 µg/mL
–,"CS(=O)(=O)N1CCC(c2ccn(S(N)(=O)=O)c2C(=O)O)CC1 [Example 59, 3-(1-Methylsulfonyl-4-piperidyl)-1-sulfamoyl-pyrrole-2-carboxylic acid]",> 256 µg/mL
834 nM,"NCCC(=O)N1CCC(c2ccn(S(N)(=O)=O)c2C(=O)O)CC1 [Example 63, 3-[1-(3-Aminopropanoyl)-4-piperidyl]-1-sulfamoyl-pyrrole-2-carboxylic acid]",–
–,"CCc1cn(S(N)(=O)=O)c(C(=O)O)c1-c1ccccc1 [Example 74, 4-Ethyl-3-phenyl-1-sulfamoyl-pyrrole-2-carboxylic acid]",237 µg/mL
–,"Cc1cn(S(N)(=O)=O)c(C(=O)O)c1-c1ccccc1 [Example 75, 4-Methyl-3-phenyl-1-sulfamoyl-1H-pyrrole-2-carboxylic acid]",> 256 µg/mL
–,"NS(=O)(=O)c1ccn(-c2ccc(F)cc2)c1C(=O)O [Example 80, 1-(4-Fluorophenyl)-3-sulfamoyl-pyrrole-2-carboxylic acid]",> 256 µg/mL
–,"Cc1ccc(-n2ccc(S(N)(=O)=O)c2C(=O)O)cc1 [Example 81, 1-(p-Tolyl)-3-sulfamoyl-pyrrole-2-carboxylic acid]",> 256 µg/mL
–,"NS(=O)(=O)c1ccn(-c2ccc(C3CCNCC3)cc2)c1C(=O)O [Example 82, 1-[4-(Piperidin-4-yl)phenyl]-3-sulfamoyl-1H-pyrrole-2-carboxylic acid, sodium salt]",> 256 µg/mL
–,"COc1ccc(-n2ccc(S(N)(=O)=O)c2C(=O)O)cc1 [Example 83, 1-(4-Methoxyphenyl)-3-sulfamoyl-pyrrole-2-carboxylic acid]",> 256 µg/mL
–,"NS(=O)(=O)c1ccn(Cc2ccccc2)c1C(=O)O [Example 84, 1-Benzyl-3-sulfamoyl-pyrrole-2-carboxylic acid]",> 256 µg/mL
